Assay results from PubChem BioAssay (NCI).
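Growth conditions: 96-well plates. Treatment: test compound, 48 hours, 5 concentrations. Analysis: linear interpolation between bracketing concentrations; unreached endpoints set to highest concentration. TGI: total growth inhibition.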

How the values were obtained:
Assay in all cases: growth of human tumour cells (NCI), 48 h
786-0 renal = tested on: 786-0 renal
A498 renal = tested on: A498 renal
A549 NSCLC = tested on: A549 NSCLC
ACHN renal = tested on: ACHN renal
CAKI-1 renal = tested on: CAKI-1 renal
CCRF-CEM leukemia = tested on: CCRF-CEM leukemia
COLO 205 colon = tested on: COLO 205 colon
DLD-1 colon = tested on: DLD-1 colon
DMS 114 small cell lung = tested on: DMS 114 small cell lung
DMS 273 small cell lung = tested on: DMS 273 small cell lung
EKVX NSCLC = tested on: EKVX NSCLC
HCC-2998 colon = tested on: HCC-2998 colon
HCT-116 colon = tested on: HCT-116 colon
HCT-15 colon = tested on: HCT-15 colon
HL-60(TB) leukemia = tested on: HL-60(TB) leukemia
HOP-18 NSCLC = tested on: HOP-18 NSCLC
HOP-62 NSCLC = tested on: HOP-62 NSCLC
HOP-92 NSCLC = tested on: HOP-92 NSCLC
HT29 colon = tested on: HT29 colon
IGROV1 ovarian = tested on: IGROV1 ovarian
K-562 leukemia = tested on: K-562 leukemia
KM12 colon = tested on: KM12 colon
KM20L2 colon = tested on: KM20L2 colon
LOX IMVI melanoma = tested on: LOX IMVI melanoma
LXFL 529 NSCLC = tested on: LXFL 529 NSCLC
M14 melanoma = tested on: M14 melanoma
M19-MEL melanoma = tested on: M19-MEL melanoma
MALME-3M melanoma = tested on: MALME-3M melanoma
MOLT-4 leukemia = tested on: MOLT-4 leukemia
NCI-H226 lung = tested on: NCI-H226 lung
NCI-H23 lung = tested on: NCI-H23 lung
NCI-H460 lung = tested on: NCI-H460 lung
NCI-H522 lung = tested on: NCI-H522 lung
OVCAR-3 ovarian = tested on: OVCAR-3 ovarian
OVCAR-4 ovarian = tested on: OVCAR-4 ovarian
OVCAR-5 ovarian = tested on: OVCAR-5 ovarian
OVCAR-8 ovarian = tested on: OVCAR-8 ovarian
RPMI-8226 leukemia = tested on: RPMI-8226 leukemia
RXF 393 renal = tested on: RXF 393 renal
RXF-631 renal = tested on: RXF-631 renal
SF-268 CNS = tested on: SF-268 CNS
SF-295 CNS = tested on: SF-295 CNS
SF-539 CNS = tested on: SF-539 CNS
SK-MEL-2 melanoma = tested on: SK-MEL-2 melanoma
SK-MEL-28 melanoma = tested on: SK-MEL-28 melanoma
SK-MEL-5 melanoma = tested on: SK-MEL-5 melanoma
SK-OV-3 ovarian = tested on: SK-OV-3 ovarian
SN12C renal = tested on: SN12C renal
SNB-19 CNS = tested on: SNB-19 CNS
SNB-75 CNS = tested on: SNB-75 CNS
SNB-78 CNS = tested on: SNB-78 CNS
SR leukemia = tested on: SR leukemia
SW-620 colon = tested on: SW-620 colon
TK-10 renal = tested on: TK-10 renal
U251 CNS = tested on: U251 CNS
UACC-257 melanoma = tested on: UACC-257 melanoma
UACC-62 melanoma = tested on: UACC-62 melanoma
UO-31 renal = tested on: UO-31 renal
XF 498 CNS = tested on: XF 498 CNS

N#C/C(=C\c1c(Cl)cccc1Cl)c1ccccc1
TGI (786-0 renal): > 56.6 µM
TGI (A498 renal): 25.4 µM
TGI (A549 NSCLC): > 100 µM
TGI (ACHN renal): > 100 µM
TGI (CAKI-1 renal): > 100 µM
TGI (CCRF-CEM leukemia): 11.9 µM
TGI (COLO 205 colon): 7.16 µM
TGI (DLD-1 colon): > 100 µM
TGI (DMS 114 small cell lung): > 39.5 µM
TGI (DMS 273 small cell lung): 11.8 µM
TGI (EKVX NSCLC): > 100 µM
TGI (HCC-2998 colon): > 100 µM
TGI (HCT-116 colon): > 100 µM
TGI (HCT-15 colon): > 100 µM
TGI (HL-60(TB) leukemia): 15.9 µM
TGI (HOP-18 NSCLC): > 100 µM
TGI (HOP-62 NSCLC): > 31.4 µM
TGI (HOP-92 NSCLC): 41.1 µM
TGI (HT29 colon): > 59.5 µM
TGI (IGROV1 ovarian): > 100 µM
TGI (K-562 leukemia): > 100 µM
TGI (KM12 colon): > 100 µM
TGI (KM20L2 colon): 21.8 µM
TGI (LOX IMVI melanoma): > 68.5 µM
TGI (LXFL 529 NSCLC): > 100 µM
TGI (M14 melanoma): > 76.3 µM
TGI (M19-MEL melanoma): > 100 µM
TGI (MALME-3M melanoma): 56 µM
TGI (MOLT-4 leukemia): > 66.5 µM
TGI (NCI-H226 lung): > 48.9 µM
TGI (NCI-H23 lung): > 87.9 µM
TGI (NCI-H460 lung): > 58.5 µM
TGI (NCI-H522 lung): 40.9 µM
TGI (OVCAR-3 ovarian): 19.9 µM
TGI (OVCAR-4 ovarian): > 96.3 µM
TGI (OVCAR-5 ovarian): > 100 µM
TGI (OVCAR-8 ovarian): > 100 µM
TGI (RPMI-8226 leukemia): > 100 µM
TGI (RXF 393 renal): 25.7 µM
TGI (RXF-631 renal): > 100 µM
TGI (SF-268 CNS): > 100 µM
TGI (SF-295 CNS): 65.5 µM
TGI (SF-539 CNS): 9.53 µM
TGI (SK-MEL-2 melanoma): 39.3 µM
TGI (SK-MEL-28 melanoma): > 100 µM
TGI (SK-MEL-5 melanoma): > 46.8 µM
TGI (SK-OV-3 ovarian): > 65.9 µM
TGI (SN12C renal): > 69.5 µM
TGI (SNB-19 CNS): 78.5 µM
TGI (SNB-75 CNS): 7.76 µM
TGI (SNB-78 CNS): > 66.8 µM
TGI (SR leukemia): 6.04 µM
TGI (SW-620 colon): > 100 µM
TGI (TK-10 renal): > 100 µM
TGI (U251 CNS): > 90.1 µM
TGI (UACC-257 melanoma): > 100 µM
TGI (UACC-62 melanoma): > 31.3 µM
TGI (UO-31 renal): > 100 µM
TGI (XF 498 CNS): 33.4 µM
